system: rabbit skeletal myofibrils (fast skeletal myofibrils); assay: Activation of fast skeletal myofibrils (PUMA assay, AC1.4); assay type: biochemical; details: calcium at pCa25, AC1.4 = concentration at which the compound increased the enzymatic activity
Method in brief: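 Detergent-washed rabbit psoas myofibrils (~90% fast fibers), calcium set to give 25% of maximal rate (pCa25). ATPase followed by pyruvate kinase/lactate dehydrogenase-coupled NADH oxidation, absorbance at 340 nm. PM12 buffer: 12 mM PIPES, 2 mM MgCl2, 1 mM DTT, pH 6.8.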

Compound | AC1.4 [µM]
CC[C@H](C)[C@H]1C(=O)Nc2ccccc2CN1C(=O)[C@H]1CC(=O)N(C)C1 [Compound 194, (S)-3-((S)-sec-butyl)-4-((S)-1-methyl-5-oxopyrrolidine-3-carbonyl)-1,3,4,5-tetrahydro-2H-benzo[e][1,4]diazepin-2-one] | 1.52
CC[C@H](C)[C@H]1C(=O)Nc2ccccc2CN1C(=O)C(N)=O [Compound 33, 2-((S)-3-((S)-sec-Butyl)-2-oxo-1,2,3,5-tetrahydro-4H-benzo[e][1,4]diazepin-4-yl)-2-oxoacetamide] | 1.14
CC[C@H](C)[C@H]1C(=O)Nc2ccccc2CN1C(=O)c1cnn(C[C@@H](C)O)c1 [Compound 164, (S)-3-((S)-sec-butyl)-4-(1-((R)-2-hydroxypropyl)-1H-pyrazole-4-carbonyl)-1,3,4,5-tetrahydro-2H-benzo[e][1,4]diazepin-2-one] | 0.10
CC[C@H](C)[C@H]1C(=O)Nc2cnccc2CN1C(=O)N1CC(O)C1 [Compound 379, (S)-3-((S)-sec-butyl)-4-(3-hydroxyazetidine-1-carbonyl)-1,3,4,5-tetrahydro-2H-pyrido[3,4-e][1,4]diazepin-2-one] | 0.92
CC[C@H](C)[C@H]1C(=O)Nc2ccccc2CN1C(=O)N1C[C@@H](O)[C@@H](O)C1 [Compound 137, (S)-3-((S)-sec-butyl)-4-((3R,4S)-3,4-dihydroxypyrrolidine-1-carbonyl)-1,3,4,5-tetrahydro-2H-benzo[e][1,4]diazepin-2-one] | 3.35
CC[C@H](C)[C@H]1C(=O)Nc2ccccc2CN1C(=O)NC[C@H](O)CO [Compound 207, (S)-3-((S)-sec-butyl)-N-((S)-2,3-dihydroxypropyl)-2-oxo-1,2,3,5-tetrahydro-4H-benzo[e][1,4]diazepine-4-carboxamide] | 3.62
CC[C@H](C)[C@H]1C(=O)Nc2ccccc2CN1C(=O)N1CC(N2CCN(c3ccccn3)CC2)C1 [Compound 268, (S)-3-((S)-sec-butyl)-4-(3-(4-(pyridin-2-yl)piperazin-1-yl)azetidine-1-carbonyl)-1,3,4,5-tetrahydro-2H-benzo[e][1,4]diazepin-2-one] | 1.03
CC[C@H](C)[C@H]1C(=O)Nc2ccccc2CN1C(=O)N1CCNC(=O)C1 [Compound 229, (S)-3-((S)-sec-butyl)-4-(3-oxopiperazine-1-carbonyl)-1,3,4,5-tetrahydro-2H-benzo[e][1,4]diazepin-2-one] | 3.74
CC[C@H](C)[C@H]1C(=O)Nc2cnccc2CN1C(=O)c1cnn(C)c1 [Compound 373, (S)-3-((S)-sec-butyl)-4-(1-methyl-1H-pyrazole-4-carbonyl)-1,3,4,5-tetrahydro-2H-pyrido[3,4-e][1,4]diazepin-2-one] | 0.66
CC[C@H](C)[C@H]1C(=O)Nc2ccc(F)cc2CN1C(=O)c1cn[nH]c1 [Compound 342, (S)-3-((S)-sec-butyl)-7-fluoro-4-(1H-pyrazole-4-carbonyl)-1,3,4,5-tetrahydro-2H-benzo[e][1,4]diazepin-2-one] | 0.27
CC[C@H](C)[C@H]1C(=O)Nc2ccccc2CN1C(=O)NC1CN(C2COC2)C1 [Compound 139, (S)-3-((S)-sec-butyl)-N-(1-(oxetan-3-yl)azetidin-3-yl)-2-oxo-1,2,3,5-tetrahydro-4H-benzo[e][1,4]diazepine-4-carboxamide] | 0.93
CC[C@H](C)[C@H]1C(=O)Nc2ccc(F)cc2CN1C(=O)c1ncn[nH]1 [Compound 343, (S)-3-((S)-sec-butyl)-7-fluoro-4-(1H-1,2,4-triazole-5-carbonyl)-1,3,4,5-tetrahydro-2H-benzo[e][1,4]diazepin-2-one] | 0.25
CC[C@H](C)[C@H]1C(=O)Nc2ccccc2CN1C(=O)NCC(=O)N1CCC[C@H]1C(=O)O [Compound 259, ((S)-3-((S)-sec-butyl)-2-oxo-2,3,4,5-tetrahydro-1H-benzo[e][1,4]diazepine-4-carbonyl)glycyl-L-proline] | 2.44
CC[C@H](C)[C@H]1C(=O)Nc2ccccc2CN1C(=O)N1CC(N2CCN(CCO)CC2)C1 [Compound 267, (S)-3-((S)-sec-butyl)-4-(3-(4-(2-hydroxyethyl)piperazin-1-yl)azetidine-1-carbonyl)-1,3,4,5-tetrahydro-2H-benzo[e][1,4]diazepin-2-one] | 0.95
CC[C@H](C)[C@H]1C(=O)Nc2ccccc2CN1C(=O)c1cnn(C)n1 [Compound 157, (S)-3-((S)-sec-butyl)-4-(2-methyl-2H-1,2,3-triazole-4-carbonyl)-1,3,4,5-tetrahydro-2H-benzo[e][1,4]diazepin-2-one] | 0.11
CC[C@H](C)[C@H]1C(=O)Nc2ccccc2CN1C(=O)N1CC(OC)C1 [Compound 59, (S)-3-((S)-sec-butyl)-4-(3-methoxyazetidine-1-carbonyl)-1,3,4,5-tetrahydro-2H-benzo[e][1,4]diazepin-2-one] | 0.17
CC[C@H](C)[C@H]1C(=O)Nc2ccccc2CN1C(=O)N[C@@H](C(N)=O)c1ccccc1 [Compound 252, (S)-N-((R)-2-amino-2-oxo-1-phenylethyl)-3-((S)-sec-butyl)-2-oxo-1,2,3,5-tetrahydro-4H-benzo[e][1,4]diazepine-4-carboxamide] | 0.44

Compound | AC1.4 [µM]
CC[C@H](C)[C@H]1C(=O)Nc2ccccc2CN1C#N [Compound 145, (S)-3-((S)-sec-butyl)-2-oxo-1,2,3,5-tetrahydro-4H-benzo[e][1,4]diazepine-4-carbonitrile] | 0.50
CC[C@H](C)[C@H]1C(=O)Nc2ccccc2CN1C(=O)c1ccc2c(c1)CC(=O)N2 [Compound 167, (S)-3-((S)-sec-butyl)-4-(2-oxoindoline-5-carbonyl)-1,3,4,5-tetrahydro-2H-benzo[e][1,4]diazepin-2-one] | 0.05
NC(=O)N1Cc2ccccc2NC(=O)[C@@H]1C1CCCCC1 [Compound 29, (S)-3-Cyclohexyl-2-oxo-1,2,3,5-tetrahydro-4H-benzo[e][1,4]diazepine-4-carboxamide] | 0.22
CC[C@H](C)[C@H]1C(=O)Nc2ccccc2CN1C(=O)N1CC[C@H](C(=O)O)C1 [Compound 289, (S)-1-((S)-3-((S)-sec-butyl)-2-oxo-2,3,4,5-tetrahydro-1H-benzo[e][1,4]diazepine-4-carbonyl)pyrrolidine-3-carboxylic acid] | 3.59
CC[C@H](C)[C@H]1C(=O)Nc2ccccc2CN1C(=N)NO [Compound 146, (S)-3-((S)-sec-butyl)-N-hydroxy-2-oxo-1,2,3,5-tetrahydro-4H-benzo[e][1,4]diazepine-4-carboximidamide] | 0.30
CC[C@H](C)[C@H]1C(=O)Nc2ccccc2CN1C(=O)[C@H]1CCCN1C(C)=O [Compound 197, (S)-4-(acetyl-D-prolyl)-3-((S)-sec-butyl)-1,3,4,5-tetrahydro-2H-benzo[e][1,4]diazepin-2-one] | 1.76
CC[C@H](C)[C@H]1C(=O)Nc2ccccc2CN1S(=O)(=O)N(C)C [Compound 27, (S)-3-((S)-sec-Butyl)-N,N-dimethyl-2-oxo-1,2,3,5-tetrahydro-4H-benzo[e][1,4]diazepine-4-sulfonamide] | 0.23
CC(C)[C@H]1C(=O)Nc2ccccc2CN1c1nccc(=O)[nH]1 [Compound 88, (S)-3-isopropyl-4-(6-oxo-1,6-dihydropyrimidin-2-yl)-1,3,4,5-tetrahydro-2H-benzo[e][1,4]diazepin-2-one] | 1.22
CC[C@H](C)[C@H]1C(=O)Nc2cc(F)ccc2CN1C(=O)NC [Compound 77, (S)-3-((S)-sec-butyl)-8-fluoro-N-methyl-2-oxo-1,2,3,5-tetrahydro-4H-benzo[e][1,4]diazepine-4-carboxamide] | 0.19
CC(C)[C@H]1C(=O)Nc2ccccc2CN1C(=O)c1cn[nH]c1 [Compound 331, (S)-3-isopropyl-4-(1H-pyrazole-4-carbonyl)-1,3,4,5-tetrahydro-2H-benzo[e][1,4]diazepin-2-one] | 1.03
CC[C@H](C)[C@H]1C(=O)Nc2ccccc2CN1C(=O)N1CC[C@@H](CO)C1 [Compound 285, (S)-3-((S)-sec-butyl)-4-((R)-3-(hydroxymethyl)pyrrolidine-1-carbonyl)-1,3,4,5-tetrahydro-2H-benzo[e][1,4]diazepin-2-one] | 0.54
CC[C@H](C)[C@H]1C(=O)Nc2ccccc2CN1C(=O)N1C[C@@H](O)[C@H](O)C1 [Compound 140, (S)-3-((S)-sec-butyl)-4-((3R,4R)-3,4-dihydroxypyrrolidine-1-carbonyl)-1,3,4,5-tetrahydro-2H-benzo[e][1,4]diazepin-2-one] | 4.74
CC[C@H](C)[C@H]1C(=O)Nc2ccccc2CN1C(=O)N(C)Cc1coc(C)n1 [Compound 237, (S)-3-((S)-sec-butyl)-N-methyl-N-((2-methyloxazol-4-yl)methyl)-2-oxo-1,2,3,5-tetrahydro-4H-benzo[e][1,4]diazepine-4-carboxamide] | 1.86
CC[C@H](C)[C@H]1C(=O)Nc2ccc(F)cc2CN1C(=O)N[C@H]1CCN(CCO)C1 [Compound 349, (S)-3-((S)-sec-butyl)-7-fluoro-N-((S)-1-(2-hydroxyethyl)pyrrolidin-3-yl)-2-oxo-1,2,3,5-tetrahydro-4H-benzo[e][1,4]diazepine-4-carboxamide] | 1.57
CC[C@H](C)[C@H]1C(=O)Nc2ccccc2CN1C(C)=O [Compound 15, (S)-4-Acetyl-3-((S)-sec-butyl)-1,3,4,5-tetrahydro-2H-benzo[e][1,4]diazepin-2-one] | 0.27
CC[C@H](C)[C@H]1C(=O)Nc2ccccc2CN1C(=O)C1CC(=O)N(C)C1 (stereo partly shown) [Compound 148] | 0.98
CC[C@H](C)[C@H]1C(=O)Nc2cncc(F)c2CN1C(=O)NC [Compound 367, (S)-3-((S)-sec-butyl)-6-fluoro-N-methyl-2-oxo-1,2,3,5-tetrahydro-4H-pyrido[3,4-e][1,4]diazepine-4-carboxamide] | 1.05

From US12441691B2 (Cytokinetics, Inc., priority 2020, dated 2025)
